Results on 43 compounds are retold here after patent US20230174523A1, “BENZENESULFONAMIDE DERIVATIVES AS TRAP1 MODULATORS AND USES THEREOF” (Amathus Therapeutics, Inc., priority 2020, published 2023).

The target in the test is T1, TRAP1 enzyme (Homo sapiens, UniProt Q12931).
T1 sequence (Q12931 60-704): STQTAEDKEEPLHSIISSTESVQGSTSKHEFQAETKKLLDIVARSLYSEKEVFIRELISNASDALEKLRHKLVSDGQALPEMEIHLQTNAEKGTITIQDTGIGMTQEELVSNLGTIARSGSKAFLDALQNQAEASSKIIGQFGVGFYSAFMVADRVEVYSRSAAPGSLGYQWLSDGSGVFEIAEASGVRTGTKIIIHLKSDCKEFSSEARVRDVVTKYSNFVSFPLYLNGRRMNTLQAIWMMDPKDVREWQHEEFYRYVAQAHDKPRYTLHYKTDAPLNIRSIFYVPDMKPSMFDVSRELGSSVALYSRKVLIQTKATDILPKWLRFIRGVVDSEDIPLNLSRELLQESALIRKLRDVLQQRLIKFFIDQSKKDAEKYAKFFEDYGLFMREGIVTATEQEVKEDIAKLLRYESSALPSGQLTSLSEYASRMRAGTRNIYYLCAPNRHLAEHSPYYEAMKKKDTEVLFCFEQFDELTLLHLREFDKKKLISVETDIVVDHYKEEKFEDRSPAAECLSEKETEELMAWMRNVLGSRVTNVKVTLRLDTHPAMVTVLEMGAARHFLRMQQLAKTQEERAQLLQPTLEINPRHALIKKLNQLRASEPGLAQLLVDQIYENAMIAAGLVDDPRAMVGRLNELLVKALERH
The experiment in a line: ADP Glo assay of TRAP1 ATPase activity. The format is biochemical. The settings on record: for EC50: TRAP1 ATPase activation, 150 nM Trap1, 20 μM ATP, geometric mean, read-out: ADP GLO DRC: GeoMean EC50; for Emax: read-out: ADP GLO DRC: Mean Emax. On the procedure: Potency of test compounds to modulate the ATPase activity of TRAP1 enzyme was evaluated using ADP Glo assay. The assay is based on quantification of the ADP generated from ATP in the ATPase reaction. The assay is performed in two steps: first, after the ATPase reaction, an equal volume of ADP-Glo™ Reagent is added to terminate the ATPase reaction and deplete the remaining ATP. Second, the Kinase Detection Reagent is added to simultaneously convert ADP to ATP and allow the newly synthesized ATP to be measured using a luciferase/luciferin reaction.
All the assays were carried out in a 384-well Proxiplate. The buffer used was 25 mM Pipes pH-7.5, 40 mM KCl, 0.05 mM MgCl2, 0.025% BSA, 0.316 mM EGTA, 0.003% Empigen, 0.01% Igepal. 150 nM Trap1 enzyme was incubated with various concentrations of the test compound (0.79 μM-100 μM) at 37° C. for 30 mins (except in blank wells). 20 μM ATP was added to each well to start the reaction. The plate was spun for 1 min at 1200 rpm and then incubated at 37° C. for 60 mins. 5 μl of ADP Glo reagent was added to all the wells and spun the plate for 1 min at 1200 rpm and kept it on a shaker at ambient temperature for 60 mins. 10 μl of kinase detection mix was added to all the wells and the plate was read for Luminescence at 495 nm. The amount of ADP released was estimated from ATP/ADP standard curve generated at the same experimental conditions. Emax (Maximal percent activation) and EC50 (concentration for half maximal activation) were estimated by fitting the dose response data to a sigmoidal curve fitting equation using Graphpad Prism software V. 8.

A value given as a limit tells only on which side of the number the result lay.

Turning to `CCc1cc(C(=O)Nc2ccc(OC)c(S(=O)(=O)Nc3c(C)cccc3C)c2)cc(C)n1` [Compound 1018], the EC50 fell in the range of 10 to 20 µM and the maximal response (Emax) was > 300%.
Taken in the same sequence, the figures for `COc1ccc(NC(=O)c2csc(-c3cc(F)c(F)c(F)c3)n2)cc1S(=O)(=O)Nc1c(C)csc1C` [Compound 2406] were < 10 µM and 123 to 159%.
Taken in the same sequence, the figures for `Cc1c(Br)cncc1C(=O)Nc1ccc(F)c(S(=O)(=O)Nc2ccc(Cl)cc2)c1` [Compound 826] were 20 to 100 µM and 200 to 300%.
Consider `CCS(=O)(=O)c1ccc(OC)c(C(=O)Nc2ccc(F)c(S(=O)(=O)Nc3ccc(Cl)cc3)c2)c1` [Compound 822], for which the EC50 was in the range of 10 to 20 µM and the Emax was in the range of 160 to 199%.
In the same order, the values of `COc1ccc(NC(=O)c2cc(-n3ccnc3)ccn2)cc1S(=O)(=O)Nc1c(C)cccc1C` [Compound 1030] are 10 to 20 µM and 200 to 300%.
For `COc1ccc(NC(=O)c2ncc(-c3ccccc3)o2)cc1S(=O)(=O)Nc1sc2c(c1C#N)CCCC2` [Compound 1671], the concentration for a half-maximal effect (EC50) was in the range of 10 to 20 µM and the maximal effect (Emax) lay within 160 to 199%.
Turning to `COc1ccc(NC(=O)c2cc3cc(Br)cnc3s2)cc1S(=O)(=O)Nc1c(C)cccc1C` [Compound 1020], the concentration for a half-maximal effect (EC50) fell in the range of 10 to 20 µM and the Emax lay within 200 to 300%.
Taken in the same sequence, the figures for `COc1ccc(NC(=O)c2cnn3cccnc23)cc1S(=O)(=O)Nc1c(C)cccc1C` [Compound 1147] were 20 to 100 µM and 200 to 300%.
Taken in the same sequence, the figures for `COc1ccc(NC(=O)c2cnoc2C2CC2)cc1S(=O)(=O)Nc1c(C)cccc1C` [Compound 1160] were 20 to 100 µM and 160 to 199%.
Regarding `COc1ccc(NC(=O)c2ncc(-c3ccccc3)o2)cc1S(=O)(=O)Nc1c(C)cccc1C#N` [Compound 1357], the EC50 was 10 to 20 µM and the maximal effect (Emax) fell in the range of 160 to 199%.
Consider `COc1ccc(NC(=O)c2ccc3cnn(C)c3c2)cc1S(=O)(=O)Nc1c(C)cccc1C` [Compound 1370], for which the half-maximal effective concentration (EC50) lay in the range of 20 to 100 µM and the Emax was > 300%.
Turning to `COc1ccc(NC(=O)c2ncc(-c3ccccc3)o2)cc1S(=O)(=O)Nc1c(C)cc(C)nc1C` [Compound 1575], the EC50 was 20 to 100 µM and the maximum response (Emax) lay within 123 to 159%.
In the same order, the values of `COc1ccc(NC(=O)c2cnc(-c3cccnc3OC)[nH]2)cc1S(=O)(=O)Nc1ccc(Cl)cc1` [Compound 1951] are < 10 µM and 160 to 199%.
In the same order, the values of `COc1ccc(NC(=O)c2ccccc2Oc2ccccc2)cc1S(=O)(=O)Nc1c(C)cccc1C` [Compound 1234] are < 10 µM and 160 to 199%.
`COc1ccc(NC(=O)c2cc3c(C)nn(C)c3s2)cc1S(=O)(=O)Nc1c(Cl)cccc1Cl` [Compound 1375]: the 50% effective concentration (EC50) lay within 10 to 20 µM and the maximal response (Emax) was in the range of 160 to 199%.
Regarding `COc1ccc(NC(=O)c2cc3cnccc3s2)cc1S(=O)(=O)Nc1c(C)cccc1C` [Compound 1287], the concentration giving a half-maximal response (EC50) lay in the range of 20 to 100 µM and the Emax fell in the range of 123 to 159%.
Take `COc1ccc(NC(=O)c2c(C(F)(F)F)coc2C)cc1S(=O)(=O)Nc1c(C)cccc1C` [Compound 1111]: the EC50 fell in the range of 10 to 20 µM and the Emax is 160 to 199%.
In the case of `COc1ccc(NC(=O)c2ccc3nc(C)ccc3c2)cc1S(=O)(=O)Nc1c(C)cccc1C` [Compound 1118], the 50% effective concentration (EC50) is 10 to 20 µM and the Emax was 200 to 300%.
Consider `COc1ccc(NC(=O)c2cccc(-n3nc(C)cc3C)c2)cc1S(=O)(=O)Nc1c(C)cccc1C` [Compound 1249], for which the EC50 was 10 to 20 µM and the Emax was in the range of 160 to 199%.
In the same order, the values of `COc1ccc(NC(=O)c2ncc(-c3ccccc3)o2)cc1S(=O)(=O)Nc1cccc(C(F)(F)F)n1` [Compound 1805] are 10 to 20 µM and 200 to 300%.
Regarding `COc1ccc(NC(=O)c2cc3c(C)nn(C)c3s2)cc1S(=O)(=O)Nc1c(C)cccc1C` [Compound 1252], the EC50 was < 10 µM and the maximal response (Emax) was in the range of 200 to 300%.
In the same order, the values of `COc1ccc(NC(=O)c2ccnc(Cl)c2C)cc1S(=O)(=O)Nc1c(C)cccc1C` [Compound 1067] are 20 to 100 µM and 160 to 199%.
In the same order, the values of `COc1ccc(NC(=O)c2ccc3nc(C)sc3c2)cc1S(=O)(=O)Nc1c(C)cccc1C` [Compound 1231] are 10 to 20 µM and > 300%.
Taken in the same sequence, the figures for `CCCn1cc(C(=O)Nc2ccc(F)c(S(=O)(=O)Nc3ccc(Cl)cc3)c2)cn1` [Compound 683] were 20 to 100 µM and 200 to 300%.
For `COc1ccc(NC(=O)c2cccc3ccn(C)c23)cc1S(=O)(=O)Nc1c(C)cccc1C` [Compound 1060], the 50% effective concentration (EC50) was < 10 µM and the maximal effect (Emax) is 200 to 300%.
In the same order, the values of `COc1ccc(NC(=O)c2noc3c2CCCC3)cc1S(=O)(=O)Nc1c(C)cccc1C` [Compound 1114] are 10 to 20 µM and 200 to 300%.
In the same order, the values of `COc1ccc(NC(=O)c2cnc(-c3c(OC)cccc3OC)[nH]2)cc1S(=O)(=O)Nc1ccc(Cl)cc1` [Compound 1969] are 10 to 20 µM and 200 to 300%.
For the compound `COc1ccc(NC(=O)c2scc(C)c2Cl)cc1S(=O)(=O)Nc1c(C)cccc1C` [Compound 1128], the EC50 was < 10 µM and the maximal effect (Emax) is 160 to 199%.
Taken in the same sequence, the figures for `COc1ccc(NC(=O)c2c(C)noc2-c2ccccc2)cc1S(=O)(=O)Nc1c(C)cccc1C` [Compound 1244] were 10 to 20 µM and 123 to 159%.
Taken in the same sequence, the figures for `CCn1nc(C(C)C)cc1C(=O)Nc1ccc(OC)c(S(=O)(=O)Nc2c(C)cccc2C)c1` [Compound 1093] were < 10 µM and 200 to 300%.
With `COc1ccc(NC(=O)c2nn(C)c3c2CCC3)cc1S(=O)(=O)Nc1c(C)cccc1C` [Compound 1010], the concentration giving a half-maximal response (EC50) was in the range of 10 to 20 µM and the Emax lay in the range of 200 to 300%.
Taken in the same sequence, the figures for `COc1ccc(NC(=O)c2cccc(OC3CCOCC3)n2)cc1S(=O)(=O)Nc1c(C)cccc1C` [Compound 1154] were 20 to 100 µM and 200 to 300%.
`COc1ccc(NC(=O)c2cc(C)cs2)cc1S(=O)(=O)Nc1c(C)cccc1C` [Compound 1101]: the EC50 fell in the range of 10 to 20 µM and the Emax lay within 160 to 199%.
Take `COc1ccc(NC(=O)c2cnc(OC)c(C(F)(F)F)c2)cc1S(=O)(=O)Nc1c(C)cccc1C` [Compound 1073]: the concentration giving a half-maximal response (EC50) was < 10 µM and the maximal response (Emax) lay within 123 to 159%.
In the same order, the values of `COc1ccc(NC(=O)c2cnc(Cl)s2)cc1S(=O)(=O)Nc1c(C)cccc1C` [Compound 1070] are < 10 µM and 200 to 300%.
As to `COc1ccc(-c2noc(C)c2C(=O)Nc2ccc(F)c(S(=O)(=O)Nc3ccc(Cl)cc3)c2)cc1` [Compound 838], the EC50 lay in the range of 10 to 20 µM and the Emax lay within 123 to 159%.
Taken in the same sequence, the figures for `COc1ccc(NC(=O)c2cc(-c3ccccc3)no2)cc1S(=O)(=O)Nc1c(C)cccc1C` [Compound 1229] were < 10 µM and 160 to 199%.
As to `COc1ccc(NC(=O)c2csc(-c3ccccc3)n2)cc1S(=O)(=O)N(CC(O)CO)c1ccc(Cl)cc1` (centres unmarked) [Compound 2404], the EC50 was < 10 µM and the Emax is 123 to 159%.
As to `COc1ccc(NC(=O)c2nc(C(C)C)cs2)cc1S(=O)(=O)Nc1c(C)cccc1C` [Compound 1169], the EC50 was < 10 µM and the Emax was in the range of 160 to 199%.
For `Cc1cc(C(=O)Nc2ccc(F)c(S(=O)(=O)Nc3ccc(Cl)cc3)c2)n(Cc2ccc(F)cc2)n1` [Compound 776], the concentration for a half-maximal effect (EC50) lay in the range of 10 to 20 µM and the maximal response (Emax) lay within 123 to 159%.
Taken in the same sequence, the figures for `COc1ccc(NC(=O)c2cnc(-c3ccccc3)s2)cc1S(=O)(=O)Nc1c(C)cccc1C` [Compound 467] were < 10 µM and 160 to 199%.
With `COc1cnc(Cl)c(C(=O)Nc2ccc(OC)c(S(=O)(=O)Nc3c(C)cccc3C)c2)c1` [Compound 1072], the EC50 is 20 to 100 µM and the Emax lay in the range of 160 to 199%.
Taken in the same sequence, the figures for `COc1ccc(NC(=O)c2cn(C(C)(C)C)nn2)cc1S(=O)(=O)Nc1c(C)cccc1C` [Compound 1050] were 20 to 100 µM and 160 to 199%.
